From PubChem BioAssay (NCI)
“And” between values parts separate entries of the source, which are not always exact repeats. Equal values may be shown once.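 Step 1: Grow cells in 96-well plates. Step 2: Expose to compound for 48 hours at 5 concentrations. Step 3: Interpolate endpoints linearly; if unreached, use highest concentration. GI50 = concentration required for 50% inhibition of growth. TGI is the concentration that stops growth completely.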

Experiments:
Experiment in all cases: DTP human tumour cell line panel, 48 h
[1] = test system: CAKI-1 renal
[2] = test system: DU-145 prostate
[3] = test system: HCC-2998 colon
[4] = test system: MDA-MB-231 breast
[5] = test system: NCI-H460 lung
[6] = test system: SK-OV-3 ovarian
[7] = test system: SN12C renal
[8] = test system: SNB-19 CNS
[9] = test system: SNB-75 CNS
[10] = test system: U251 CNS

| Structure (SMILES) | GI50 [1] | TGI [1] | GI50 [2] | TGI [2] | GI50 [3] | TGI [3] | GI50 [4] | TGI [4] | GI50 [5] | TGI [5] | GI50 [6] | TGI [6] | GI50 [7] | TGI [7] | GI50 [8] | TGI [8] | GI50 [9] | TGI [9] | GI50 [10] | TGI [10] |
| --- | --- | --- | --- | --- | --- | --- | --- | --- | --- | --- | --- | --- | --- | --- | --- | --- | --- | --- | --- | --- |
| CCN(Cc1nc2cc(C(F)(F)F)ccc2nc1-c1ccccc1)c1ccc(OC)c(OC)c1 | 17.4 µM | 64.2 µM | 14.5 µM | 31.9 µM | 16.7 µM | 34.4 µM | 12.7 µM | 29.2 µM | 22.2 µM | > 100 µM | 39.8 µM | > 100 µM | 14.9 µM | 29.6 µM | 24.6 µM | 50.4 µM | 24.5 µM | 71.7 µM | 6.49 µM | 19.1 µM |
| CC1CCC2C(C)C3C(CC4C5CC=C6CC(OC7OC(CO)C(O)C(OC8OC(CO)C(O)C(O)C8O)C7OC7OC(C)C(O)C(O)C7O)CCC6(C)C5CCC43C)N2C1 (stereo not drawn) | > 2.5 µg/mL | 25.1 µM and > 2.5 µg/mL | > 2.5 µg/mL | 38.7 µM and > 2.5 µg/mL | > 2.5 µg/mL | 35 µM and > 2.5 µg/mL | > 2.5 µg/mL | 27.8 µM and > 2.5 µg/mL | > 2.5 µg/mL | 37.6 µM and > 2.5 µg/mL | > 2.5 µg/mL | 29.6 µM and > 2.5 µg/mL | > 2.5 µg/mL | 24.3 µM and > 2.5 µg/mL | > 2.5 µg/mL | 23.8 µM and > 2.5 µg/mL | > 2.5 µg/mL | 24.7 µM and > 2.5 µg/mL | > 2.5 µg/mL | 31.1 µM and > 2.5 µg/mL |
| CC(F)(F)c1cc(F)ccc1-c1sc2cc(O)ccc2c1Oc1ccc(/C=C/C(=O)O)cc1 | 6.26 µM | 20.2 µM | 12.7 µM | 28.5 µM | 12.7 µM | 30.6 µM | 14.3 µM | 35 µM | 8.18 µM | 23.5 µM | – | – | 14 µM | 46 µM | 7.28 µM | 20.2 µM | 3.52 µM | 19.8 µM | 6.45 µM | 23 µM |
| Cc1ccc2[nH]c(C(=O)NN3C(=O)CSC34CCCC(C)C4)c(-c3ccccc3)c2c1 (stereo not drawn) | 15.5 µM | 33.8 µM | 18.7 µM | 42.4 µM | 14.5 µM | 28.8 µM | 17.2 µM | 34 µM | 18.1 µM | 38.4 µM | 21.5 µM | 48.3 µM | 16.6 µM | 32.2 µM | 18.6 µM | 36.6 µM | 17.1 µM | 34.6 µM | 17.3 µM | 33.6 µM |
| CC[C@@H](C)[C@H]([C@H](CC(=O)N1CCC[C@@H]1[C@@H](OC)[C@H](C)C(=O)N[C@H](Cc1ccccc1)c1nccs1)OC)N(C)C(=O)[C@H](NC(=O)[C@@H](C(C)C)N(C)C)C(C)C | 0.000245 µM and 0.000425 µM | – | 1.48e-05 µM | 0.000106 µM | 0.000425 µM | 0.00176 µM and 0.00234 µM | 0.000147 µM | 0.000867 µM and < 0.048 µM | – | 0.00195 µM | 7.9e-05 µM | – | 0.000425 µM | 4.25 µM and > 14.7 µM | – | 0.00744 µM | 0.000425 µM | – | – | 0.00143 µM |
| O=C(NCCCNC(=O)OCc1ccc2c(Br)cc(Br)c(O)c2n1)OCc1ccc2c(Br)cc(Br)c(O)c2n1 | > 100 µM | > 100 µM | > 100 µM | > 100 µM | > 100 µM | > 100 µM | > 100 µM | > 100 µM | > 100 µM | > 100 µM | > 100 µM | > 100 µM | > 100 µM | > 100 µM | > 100 µM | > 100 µM | > 100 µM | > 100 µM | > 100 µM | > 100 µM |
| COc1cc(-c2nn(C(=O)NS(=O)(=O)c3ccc(C)cc3)cc2-c2ccncc2)ccc1Cl | 3.15 µM | 26.9 µM | 6.88 µM | 75.7 µM | 11.4 µM | 35.8 µM | 3.19 µM | 28.2 µM | 13.3 µM | 38.5 µM | 3.38 µM | 13.6 µM | 3.02 µM | 24.1 µM | 4.9 µM | 38.5 µM | 1.69 µM | 7.52 µM | 6.16 µM | 28.5 µM |
| COc1ccc(/C(Cl)=C(\C=O)c2ccc(OC)c(OC)c2)cc1OC | – | > 100 µM | – | > 100 µM | – | > 100 µM | – | > 100 µM | – | > 100 µM | – | > 100 µM | – | > 100 µM | – | > 100 µM | – | 41 µM | – | > 100 µM |
| O=C1C(Cl)=C(Nc2cccc(C(F)(F)F)c2)C(=O)N1Cc1ccccc1Cl | 4.84 µM | 21.6 µM | 14 µM | 29.6 µM | 12.6 µM | 28 µM | 2.67 µM | 17.4 µM | 6.19 µM | 22.4 µM | 20.3 µM | 39.8 µM | 3.96 µM | 16.8 µM | 13.1 µM | 29.4 µM | 0.996 µM | 9.55 µM | 2.1 µM | 13.8 µM |
| CCOC(=O)N1C/C(=C/c2ccc(OC)cc2)C(=O)/C(=C/c2ccc(OC)cc2)C1 | 4.67 µM | > 70.1 µM | 4.18 µM | > 100 µM | 1.81 µM | 3.38 µM | 2.38 µM | 6.48 µM | 3.13 µM | > 100 µM | 3.63 µM | 16.6 µM | 1.91 µM | 4.23 µM | 3.87 µM | > 35 µM | 2.93 µM | 31.1 µM | 1.74 µM | 3.54 µM |
| Cc1ccccc1-n1c(/C=C\c2ccccn2)nc2ccccc2c1=O | 3.32 µM | 16.9 µM | 3.4 µM | 11.3 µM | 15.9 µM | 29.9 µM | 4.69 µM | 59.2 µM | 9.29 µM | 42.1 µM | 35.3 µM | > 100 µM | 21.2 µM | > 100 µM | 32.1 µM | > 100 µM | 16.9 µM | > 100 µM | 11 µM | 25.8 µM |
| COc1ccccc1CNC(=O)C1c2ccccc2C(=O)N(CC(C)C)C1c1cccs1 (stereo not drawn) | 18.1 µM | 78.8 µM | 38.4 µM | > 100 µM | 47.8 µM | > 100 µM | 26.8 µM | > 100 µM | 18.1 µM | 46.9 µM | 36.9 µM | > 100 µM | 35 µM | > 100 µM | 28.8 µM | > 100 µM | 18.1 µM | > 100 µM | 23.9 µM | > 100 µM |
| COc1ccc2[nH]c(-c3cccc(N(C)C)c3)cc(=O)c2c1 | 0.418 µM | > 100 µM | 0.589 µM | – | 0.472 µM | 3.29 µM and 2.29 µM | 2.1 µM | > 100 µM | 0.564 µM | > 100 µM | 0.573 µM | 59.2 µM | 0.654 µM | > 100 µM | – | – | 0.371 µM | 50.2 µM | 0.463 µM | – |
